From publication PMC4778124, “A continuous sirtuin activity assay without any coupling to enzymatic or chemical reactions” (Scientific Reports, 2016) come the findings set out here.

Non-standard residues stand in square brackets, D forms with d. Residues, ends and D or L forms follow the SMILES beside them. Groups on a side chain read outwards from the residue. Lys(thiomyristoyl) = CCCCCCCCCCCCCC(=S)NCCCC[C@H](N)C(=O)O; Tyr(3-NO2) = N[C@@H](Cc1ccc(O)c([N+](=O)[O-])c1)C(=O)O; Aun = NCCCCCCCCCCC(=O)O; 2Abz = Nc1ccccc1C(=O)O

What is called Km is the substrate concentration at which the rate is half of its maximum. The Ki is a measure of affinity in units of concentration, obtained from inhibition or displacement. A word on the IC50: it is the concentration at which inhibition is half-maximal. Low readings indicate greater potency in that assay, high ones weaker potency in that assay.

Format in all cases: biochemical
The target of one assay is T1, Sirt4 (Homo sapiens, UniProt Q9Y6E7).
T1 construct: made in house; host or cells: E. coli BL21 (DE3)
T1 sequence (Q9Y6E7 29-314): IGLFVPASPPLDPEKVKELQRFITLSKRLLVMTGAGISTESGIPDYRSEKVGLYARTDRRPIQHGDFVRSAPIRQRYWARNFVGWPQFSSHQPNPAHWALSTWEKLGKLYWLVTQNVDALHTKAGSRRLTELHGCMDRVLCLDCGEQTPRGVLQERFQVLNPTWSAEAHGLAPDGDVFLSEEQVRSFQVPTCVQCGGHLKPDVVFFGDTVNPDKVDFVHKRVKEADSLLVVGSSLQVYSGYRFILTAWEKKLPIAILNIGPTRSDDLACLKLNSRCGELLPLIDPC
Description: Continuous fluorescence assay, substrate kinetics. Conditions: Sirt4 1000 nM; fluorescence spectrophotometer (footnote a). On the procedure:
The fluorescence measurements were performed on a Hitachi F-4500 fluorescence spectrophotometer (Tokyo, Japan) at λEx = 310 nm and λEm = 405 nm (slitEx = 5 nm, slitEm = 2.5 nm, PMT = 700 V for 3, 4 and 5 as well as slitEx = 10 nm, slitEm = 10 nm, PMT = 950 V for 4a). Each reaction mixture contained assay-buffer, 0.5 mM NAD^+ and various peptide concentrations (0.1–100 μM) and was preincubated for 5 minutes at 37 °C. […] Product formation could be monitored by increase of relative fluorescence. This signal was converted into product concentration via calibration lines. The slope of the linear regression of product formation against time yielded the reaction velocity rates in μM/s. […] The reaction mixture was analyzed with HPLC, to control if the entire peptide substrate was turned to product. Additionally the mixture was diluted (0.1–25 μM) and measured with Hitachi F-4500 fluorescence spectrophotometer at the same conditions as described above.
(§1) The microtiter plate fluorescence measurements were performed on a Tecan Infinite M200 microplate reader (Maennedorf, Switzerland) at λEx = 320 nm and λEm = 408 nm (lag time 9 μs, integration time […], gain 160, 170 or 182). The reactions (total volume 100 μl) were measured in black low-binding 96-well microtiter plates (NUNC). […] The reaction mixture for the calibration lines was prepared as described for the single fluorescence measurements. […]

A further assay deals with T2, Sirt5 (Homo sapiens, UniProt Q9NXA8).
T2 construct: made in house
T2 sequence (Q9NXA8 37-310): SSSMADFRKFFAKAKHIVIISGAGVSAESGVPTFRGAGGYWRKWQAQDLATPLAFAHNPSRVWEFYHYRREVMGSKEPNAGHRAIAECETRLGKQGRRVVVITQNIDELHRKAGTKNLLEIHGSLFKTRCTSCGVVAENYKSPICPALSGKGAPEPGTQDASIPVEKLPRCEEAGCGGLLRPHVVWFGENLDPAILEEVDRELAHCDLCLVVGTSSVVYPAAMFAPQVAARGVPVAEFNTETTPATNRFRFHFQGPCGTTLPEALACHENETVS
Description: Continuous fluorescence assay, substrate kinetics. Conditions: Sirt5 500 nM; MTP fluorescence reader (footnote b). On the procedure: (§2) The fluorescence measurements were performed on a Hitachi F-4500 fluorescence spectrophotometer (Tokyo, Japan) at λEx = 310 nm and λEm = 405 nm (slitEx = 5 nm, slitEm = 2.5 nm, PMT = 700 V for 3, 4 and 5 as well as slitEx = 10 nm, slitEm = 10 nm, PMT = 950 V for 4a). Each reaction mixture contained assay-buffer, 0.5 mM NAD^+ and various peptide concentrations (0.1–100 μM) and was preincubated for 5 minutes at 37 °C. The reaction was started by adding human sirtuin (0.1–0.5 μM) and observed for 5–10 minutes. Product formation could be monitored by increase of relative fluorescence. This signal was converted into product concentration via calibration lines. […] The reaction mixture was analyzed with HPLC, to control if the entire peptide substrate was turned to product. Additionally the mixture was diluted (0.1–25 μM) and measured with Hitachi F-4500 fluorescence spectrophotometer at the same conditions as described above.
as §1

Assay [1] has as its target T3, Sirt3 (Homo sapiens, UniProt Q9NTG7).
T3 construct: made in house
T3 sequence (Q9NTG7 1-399): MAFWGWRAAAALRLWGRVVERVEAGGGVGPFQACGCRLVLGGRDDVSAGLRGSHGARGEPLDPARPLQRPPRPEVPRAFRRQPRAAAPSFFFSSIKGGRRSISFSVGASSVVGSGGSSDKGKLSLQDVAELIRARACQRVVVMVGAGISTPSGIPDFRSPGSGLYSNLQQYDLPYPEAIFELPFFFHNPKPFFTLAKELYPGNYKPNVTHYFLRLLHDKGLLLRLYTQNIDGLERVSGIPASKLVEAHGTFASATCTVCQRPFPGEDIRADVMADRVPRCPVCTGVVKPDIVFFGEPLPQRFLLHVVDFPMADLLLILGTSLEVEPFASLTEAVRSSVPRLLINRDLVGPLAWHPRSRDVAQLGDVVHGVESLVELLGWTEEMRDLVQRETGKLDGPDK
Description: Continuous fluorescence assay, substrate kinetics. Conditions: Sirt3 100 nM; fluorescence spectrophotometer (footnote a). The procedure:
as §2, §1

In another assay the target is T4, Sirt2 (Homo sapiens, UniProt Q8IXJ6).
T4 construct: made in house
T4 sequence (Q8IXJ6 1-389): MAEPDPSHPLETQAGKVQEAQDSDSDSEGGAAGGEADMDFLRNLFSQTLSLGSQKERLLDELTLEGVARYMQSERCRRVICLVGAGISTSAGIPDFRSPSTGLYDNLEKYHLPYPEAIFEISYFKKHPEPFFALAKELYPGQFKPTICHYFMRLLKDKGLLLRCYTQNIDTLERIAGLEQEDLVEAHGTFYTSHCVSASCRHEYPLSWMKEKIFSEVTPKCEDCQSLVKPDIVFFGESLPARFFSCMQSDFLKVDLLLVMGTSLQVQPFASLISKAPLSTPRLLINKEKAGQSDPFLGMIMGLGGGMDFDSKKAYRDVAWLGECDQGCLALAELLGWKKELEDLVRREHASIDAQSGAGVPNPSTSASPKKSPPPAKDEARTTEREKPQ
Description: Ki determination with substrate 3, 96-well MTP fluorescence reader. Conditions: Sirt2 0.01 µM; varying substrate 3, 500 µM NAD+; read-out: Ki (3). On the procedure:
The microtiter plate fluorescence measurements were performed on a Tecan Infinite M200 microplate reader (Maennedorf, Switzerland) at λEx = 320 nm and λEm = 408 nm (lag time 9 μs, integration time […], gain 160, 170 or 182). The reactions (total volume 100 μl) were measured in black low-binding 96-well microtiter plates (NUNC). Assay-buffer, 500 μM NAD^+ and 0.07–200 μM peptide substrate were pre-incubated at 37 °C for 5 min. The reaction was started by adding human sirtuin (0.01–0.5 μM). The signals were converted into product concentration via calibration lines and the resulting data were evaluated as described above (single fluorescence measurement). The determination for the kinetic constants of NAD^+ was performed in the same way, except that the peptide concentration was fixed (5, 25 or 200 μM) and the NAD^+ concentration was varied (10–1500 μM). All measurements were done in duplicates. The reaction mixture for the calibration lines was prepared as described for the single fluorescence measurements. […] The resulting plots were analyzed by a competitive inhibition and non-competitive inhibition model using the program Sigma Plot 8. The linear regression of the apparent KM-values against the corresponding inhibitor concentration yielded the inhibitor constant Ki for competitive inhibition. The Ki for non-competitive inhibition was determined by linear regression of 1/apparent Vmax against the corresponding inhibitor concentration. The negative Ki value can be determined as intersection with the X-axis from these plots.
Supplementary Figure S15. Kinetic characteristics for sirtuin inhibitor 8. The reactions were performed with 0.01 µM Sirt2 /0.1 µM Sirt3 /0.5 µM Sirt6 and 500 µM NAD^+ and varying concentrations of 3 (0.07-100 µM). […] The negative Ki value can be determined as intersection with the X-axis from the Vmax^app-1/I plot.
Supplementary Figure S16. […] The negative Ki value can be determined as intersection with the X-axis from the Vmax^app-1/I plot.
Supplementary Figure S17. […] The negative Ki value can be determined as intersection with the X-axis from the Vmax^app-1/I plot.

Assay [2] concerns the target T5, Sirt6 (Homo sapiens, UniProt Q8N6T7).
T5 construct: His-tag; made in house; host or cells: E. coli BL21 DE3
The assay is described as above. Particulars: Sirt6 0.5 µM; varying substrate 3, 500 µM NAD+ (saturating). On the procedure: (§3) All measurements were done in duplicates.
(§4) Supplementary Figure S13. […] Data are presented as mean ± s.d. (n=2) and lines represent the Michaelis-Menten-plot (left) and secondary plots (right). The apparent KM or Vmax^app-1 values from v/[S] characteristics were plotted against the corresponding inhibitor concentration.
Supplementary Figure S14. […] The reactions were performed with 0.5 µM Sirt6 and either 500 µM NAD^+ and varying concentrations of 3 (2-100 µM). […] Data are presented as mean ± s.d. (n=2) and lines represent the Michaelis-Menten-plot (left) and secondary plots (right). The apparent Vmax^app-1 values from v/[S] characteristics were plotted against the corresponding inhibitor concentration.
(§5) Supplementary Figure S15. Kinetic characteristics for sirtuin inhibitor 8. The reactions were performed with 0.01 µM Sirt2 /0.1 µM Sirt3 /0.5 µM Sirt6 and 500 µM NAD^+ and varying concentrations of 3 (0.07-100 µM). […] Data are presented as mean ± s.d. (n=2) and lines represent the Michaelis-Menten-plot (left) and secondary plots (right). The apparent Vmax^app-1 values from v/[S] characteristics were plotted against the corresponding inhibitor concentration.

The target of assay [3] is T3, Sirt3. The assay is described as above. Particulars: Sirt3 0.1 µM; varying substrate 3, 500 µM NAD+ (saturating). The procedure:
as §3, §4, §5

In assay [4] the target is T5, Sirt6. Description: Isomer specific inhibition by thioxo peptides, HPLC. Particulars: substrate 2a, 30 min, 20 °C. The procedure: After 30 min incubation at 20 °C reaction was stopped using 10% TFA solution. Inhibitor solutions were irradiated at 254 nm for 5 min. Separated isomers were applied in concentrations from 1 to 10 μM. The influence of cis content on sirtuin inhibition using fluorescence spectrometer was determined with 500 μM NAD^+, 5 μM 3, 0.1 μM Sirt2 and 0.1 μM 9. Reactions were done at 20 °C with 9 in GS and PSS (after 5 min irradiation at 254 nm). 9 in PSS was applied immediately after irradiation (transfer time ~5 s) and started directly by adding sirtuin. Reactions were measured within 1 min to avoid re-isomerization.
Supplementary Figure S36. Determination of IC50 value of 8 for Sirt6 in GS (?) and PSS (π). Data were fitted with U(%) = Umin(%) + (Umax(%) – Umin(%))/(1+10^(x-logIC50)) with U(%) percental turmover of substrate 2a; Umin(%) lowest turnover of substrate; Umax(%) maximal turnover of substrate (n=3).
Supplementary Figure S37. Inhibition of Sirt6 by 8 (?) and 9 (π).Data were fitted with U(%) = Umin(%) + (Umax(%) – Umin(%))/(1+10^(x-logIC50)) with U(%) percental turmover of substrate; Umin(%) lowest turnover of substrate 2a; Umax(%) maximal turnover of substrate (n=3).
Supplementary Figure S38. Determination of IC50 of 9 for Sirt6 with 72.4 % cis- (π) and 70.3 % (?) trans-content. Measurements were done with 10 µM peptide substrate (big figure) or 30 µM (small figure). Data were fitted with U(%) = Umin(%) + (Umax(%) – Umin(%))/(1+10^(x-logIC50)) with U(%) percental turmover of substrate 2a; Umin(%) lowest turnover of substrate; Umax(%) maximal turnover of substrate (n=3).

T5 sequence (Q8N6T7 whole entry): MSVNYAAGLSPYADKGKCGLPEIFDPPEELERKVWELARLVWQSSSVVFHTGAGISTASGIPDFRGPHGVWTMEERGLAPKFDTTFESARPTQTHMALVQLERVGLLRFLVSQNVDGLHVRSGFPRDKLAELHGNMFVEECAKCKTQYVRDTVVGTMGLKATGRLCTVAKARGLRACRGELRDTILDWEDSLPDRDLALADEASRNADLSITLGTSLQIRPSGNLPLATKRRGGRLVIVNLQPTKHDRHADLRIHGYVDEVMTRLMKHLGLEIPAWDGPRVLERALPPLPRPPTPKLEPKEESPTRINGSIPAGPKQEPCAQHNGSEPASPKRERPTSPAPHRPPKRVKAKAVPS

On to `CC(=O)N[C@@H](CCC(=O)O)C(=O)N[C@@H](C)C(=O)N[C@@H](CC(C)C)C(=O)N1CCC[C@H]1C(=O)N[C@@H](CCCCN)C(=O)N[C@@H](CCCCNC(=O)CCCCCCCCCCNC(=O)c1ccccc1N)C(=O)N[C@@H](Cc1ccc(O)c([N+](=O)[O-])c1)C(=O)NCC(=O)NCC(N)=O` [peptide 3] (Ac-EALPKK([Aun-2Abz])[Tyr(3-NO2)]GG-NH2), for which the Km turned out to be 49.5 ± 7.5 µM at Sirt4, 46.1 ± 7.2 µM at Sirt5 and 3.3 ± 0.4 µM on Sirt3 [1].

In the case of `CCCCCCCCCCCCCC(=S)NCCCC[C@H](NC(=O)[C@H](CCCCN)NC(=O)[C@@H]1CCCN1C(=O)[C@H](CC(C)C)NC(=O)[C@H](C)NC(=O)[C@H](CCC(=O)O)NC(C)=O)C(=O)N[C@H](C(=O)NCC(=O)NCC(N)=O)[C@@H](C)O` [peptide 8] (Ac-EALPK[Lys(thiomyristoyl)]TGG-NH2), the Ki on Sirt2 came to 80 ± 20 nM; on Sirt6 [2] it was 400 ± 100 nM; on Sirt3 [3], 100 ± 20 nM. The IC50 was found to be 1060 ± 120 nM against Sirt6 [4] (inhibitor with 2.5% cis isomer (ground state)) and 1870 ± 180 nM against Sirt6 [4] (inhibitor with 25% cis isomer (photo-excited state)).
